# Tested on: Myo5 SH3 domain
# Test: SPOT analysis of cellulose-bound peptides (WISE), Myo5 SH3 domain (Dataset S4)
# Format: binding, Saccharomyces cerevisiae
# Details: for The normalized value in BLU units: Myo5 SH3 domain
# [1] = SPOT analysis of membrane-synthesized peptides probed with Myo5 SH3 domain, normalized value
# [2] = SPOT analysis of cellulose-bound 14-mer yeast proteome peptides, normalized value, mean where the peptide was synthesized more than once
# [3] = SPOT analysis of membrane-bound peptides, normalized value (see methods)
# [4] = SPOT analysis of cellulose-bound peptides probed with Myo5 SH3 domain, normalized value
sequence,measurement,setting,value
NELIKQGPKRPTSA,"The normalized value in BLU units (SPOT analysis, Myo5 SH3)",[1],175.5 BLU
PKTGKPLPTQPSSS,"The normalized value in BLU units (SPOT analysis, Myo5 SH3)",[1],193.3 BLU
LQESKTVPQSPKKP,"The normalized value in BLU units (SPOT analysis, Myo5 SH3)",[1],159.2 BLU
SELYYEGPETPTPS,The normalized value in BLU units,[2],50.5 BLU
CRHLKLVPSTPMDI,The normalized value in BLU units,[3],361.8 BLU
KLVKFKLPFLPISD,The normalized value in BLU units,[2],974.1 BLU
PFSSMKEPFIPQSS,"The normalized value in BLU units (SPOT analysis, Myo5 SH3)",[4],410.6 BLU
DFRGRAYPLSPHFN,"The normalized value in BLU units (SPOT analysis, Myo5 SH3)",[1],785.0 BLU
HEASKCFPKAPQAS,The normalized value in BLU units,[3],288.6 BLU
ENTPRPNPTQPRKP,The normalized value in BLU units,[2],137.3 BLU
DPNQLSTPPTPKSA,The normalized value in BLU units,[2],166.4 BLU
EFLRKHSPKAPATG,"The normalized value in BLU units (SPOT analysis, Myo5 SH3)",[1],412.8 BLU
RTPSKPDPMEPENT,The normalized value in BLU units,[3],186.9 BLU
LNPNRRAPRRPLST,"The normalized value in BLU units (SPOT analysis, Myo5 SH3)",[1],8004.0 BLU
AFVPKRKPSLPQLA,"The normalized value in BLU units (SPOT analysis, Myo5 SH3)",[1],1744.9 BLU
SPRCLPTPILPSMS,"The normalized value in BLU units (SPOT analysis, Myo5 SH3)",[4],192.8 BLU
LVGMRSFPLYPSGL,The normalized value in BLU units,[3],385.7 BLU
FLSRYPVPDLPIYL,The normalized value in BLU units,[2],1340.1 BLU
GARFLPAPHRPEKY,The normalized value in BLU units,[2],152.9 BLU
KPPVYRLPPLPRLK,The normalized value in BLU units,[2],2305.8 BLU
KPKMLPIPSKPTLF,The normalized value in BLU units,[2],1355.0 BLU
LWKPLVYPTCPSEH,"The normalized value in BLU units (SPOT analysis, Myo5 SH3)",[4],185.3 BLU
KRRSKSLPTTPGIR,The normalized value in BLU units,[3],592.0 BLU
QFSPMDDPKSPTPM,"The normalized value in BLU units (SPOT analysis, Myo5 SH3)",[4],121.0 BLU
VFKFLFHPVTPSHF,The normalized value in BLU units,[2],564.7 BLU
DEFNRNTPPQPSLL,"The normalized value in BLU units (SPOT analysis, Myo5 SH3)",[1],118.0 BLU
ILTCLPVPPPPVRP,"The normalized value in BLU units (SPOT analysis, Myo5 SH3)",[4],616.9 BLU
AVGGKWEPGNPIAI,"The normalized value in BLU units (SPOT analysis, Myo5 SH3)",[1],78.4 BLU
ILTLLKMPEVPNSV,The normalized value in BLU units,[2],172.2 BLU
YPNGRTLPPVPTQV,The normalized value in BLU units,[3],172.4 BLU
KKVIRNYPGHPEGT,"The normalized value in BLU units (SPOT analysis, Myo5 SH3)",[1],417.8 BLU
MGLNKDVPHCPESL,"The normalized value in BLU units (SPOT analysis, Myo5 SH3)",[1],99.4 BLU
LSKVRGRPMYPRPA,The normalized value in BLU units,[3],752.4 BLU
GLVLRSTPVIPDMK,The normalized value in BLU units,[2],209.2 BLU
YEGRFWNPENPYKF,The normalized value in BLU units,[2],162.7 BLU
EDLVKKPPFIPSPT,The normalized value in BLU units,[3],755.9 BLU
ITAEKSAPTSPEVY,"The normalized value in BLU units (SPOT analysis, Myo5 SH3)",[1],94.2 BLU
DDNVRPSPISPSIN,The normalized value in BLU units,[3],153.4 BLU
TPYQLLSPILPVLL,The normalized value in BLU units,[2],287.1 BLU
FENRKHQPFTPKGM,The normalized value in BLU units,[3],211.2 BLU
ILPPRIVPAIPKKA,"The normalized value in BLU units (SPOT analysis, Myo5 SH3)",[1],3670.9 BLU
AERAKKAPSLPEGQ,"The normalized value in BLU units (SPOT analysis, Myo5 SH3)",[1],389.2 BLU
KVIRKGSPKSPAMV,The normalized value in BLU units,[3],495.7 BLU
KLPKKFPPPTPLLE,The normalized value in BLU units,[3],19656.3 BLU
AGQERFAPLAPMYY,The normalized value in BLU units,[3],100.8 BLU
LGPLKYAPHLPFSK,The normalized value in BLU units,[3],427.6 BLU
KNPTKSPPPPPSPS,"The normalized value in BLU units (SPOT analysis, Myo5 SH3)",[1],27847.4 BLU
PLTTLPPPRLPSIQ,The normalized value in BLU units,[2],2788.2 BLU
SLVKFSCPMTPLLE,The normalized value in BLU units,[2],248.6 BLU
DIPRRYIPITPADL,The normalized value in BLU units,[3],33.0 BLU
HFPSRSQPSDPKLQ,"The normalized value in BLU units (SPOT analysis, Myo5 SH3)",[1],257.5 BLU
VCTIRSTPSQPIHC,"The normalized value in BLU units (SPOT analysis, Myo5 SH3)",[1],244.9 BLU
WLGNKYDPENPFND,"The normalized value in BLU units (SPOT analysis, Myo5 SH3)",[1],88.8 BLU
DYRPKCIPCPPNGI,"The normalized value in BLU units (SPOT analysis, Myo5 SH3)",[1],154.3 BLU
KMAKKLLPYKPHNS,"The normalized value in BLU units (SPOT analysis, Myo5 SH3)",[1],707.5 BLU
APPALSAPSIPPVP,The normalized value in BLU units,[2],10786.3 BLU
LPQQHLSPLIPIAI,The normalized value in BLU units,[2],45.3 BLU
MFTYFQEPPFPDLL,"The normalized value in BLU units (SPOT analysis, Myo5 SH3)",[4],239.3 BLU
DKFIKLIPMRPVLI,The normalized value in BLU units,[3],252.9 BLU
IRTYKVVPLGPKAG,The normalized value in BLU units,[3],100.2 BLU
NFPQRMMPPPPGLV,"The normalized value in BLU units (SPOT analysis, Myo5 SH3)",[1],617.7 BLU
VKKEKKPPKIPKKV,"The normalized value in BLU units (SPOT analysis, Myo5 SH3)",[1],534.4 BLU
LQNAKNDPLPPVIE,"The normalized value in BLU units (SPOT analysis, Myo5 SH3)",[1],58.8 BLU
SILNRCVPKRPTID,"The normalized value in BLU units (SPOT analysis, Myo5 SH3)",[1],132.7 BLU
AEAYLVTPEEPAKN,The normalized value in BLU units,[2],39.6 BLU
TMKNKPKPTPPSPP,The normalized value in BLU units,[3],909.8 BLU
AADSHAIPVDPPSY,"The normalized value in BLU units (SPOT analysis, Myo5 SH3)",[4],37.9 BLU
SLLIHSLPRKPLLM,"The normalized value in BLU units (SPOT analysis, Myo5 SH3)",[4],314.4 BLU
ALDYLIPPPMPKNQ,"The normalized value in BLU units (SPOT analysis, Myo5 SH3)",[4],130.6 BLU
LLKGYIPPYKPIVK,"The normalized value in BLU units (SPOT analysis, Myo5 SH3)",[4],168.7 BLU
KWKSLFPPFFPCDI,"The normalized value in BLU units (SPOT analysis, Myo5 SH3)",[4],241.7 BLU
SKDKKTKPTPPPKP,The normalized value in BLU units,[3],179.5 BLU
TQPVRKNPEAPARR,The normalized value in BLU units,[3],232.1 BLU
FFNRYPNPYSPHVL,"The normalized value in BLU units (SPOT analysis, Myo5 SH3)",[4],136.7 BLU
QLVTLISPYDPNFK,The normalized value in BLU units,[2],177.5 BLU
SVSEKTNPSSPSVS,"The normalized value in BLU units (SPOT analysis, Myo5 SH3)",[1],126.7 BLU
NDNEKKKPSSPTAA,"The normalized value in BLU units (SPOT analysis, Myo5 SH3)",[1],98.5 BLU
EYSPRPSPWLPSKP,The normalized value in BLU units,[3],73.7 BLU
MASGLLPPIQPGFD,"The normalized value in BLU units (SPOT analysis, Myo5 SH3)",[4],223.0 BLU
NAIAMALPNEPYPA,"The normalized value in BLU units (SPOT analysis, Myo5 SH3)",[4],96.8 BLU
PLRERIIPILPANS,The normalized value in BLU units,[2],175.1 BLU
REFEFIIPVFPVIC,"The normalized value in BLU units (SPOT analysis, Myo5 SH3)",[4],163.2 BLU
FLQDRVIPIFPHYP,"The normalized value in BLU units (SPOT analysis, Myo5 SH3)",[1],260.9 BLU
LELLLSLPTGPESK,"The normalized value in BLU units (SPOT analysis, Myo5 SH3)",[4],142.9 BLU
YLNSLSEPLVPLAL,"The normalized value in BLU units (SPOT analysis, Myo5 SH3)",[4],131.6 BLU
VQIKRADPHFPHDE,The normalized value in BLU units,[3],132.0 BLU
ALSTKGYPHEPPLL,"The normalized value in BLU units (SPOT analysis, Myo5 SH3)",[1],138.6 BLU
GENIKITPQKPFWF,The normalized value in BLU units,[3],115.0 BLU
HEVPKRSPEKPSNP,The normalized value in BLU units,[3],171.6 BLU
KNLKKYDPEDPNRR,The normalized value in BLU units,[3],207.1 BLU
ALYHLSNPNVPKLW,The normalized value in BLU units,[2],195.7 BLU
VAVPFTLPVIPYDL,"The normalized value in BLU units (SPOT analysis, Myo5 SH3)",[4],240.5 BLU
TLDEKNLPRLPTPF,"The normalized value in BLU units (SPOT analysis, Myo5 SH3)",[1],205.2 BLU
AAYDHAEPVQPEDA,"The normalized value in BLU units (SPOT analysis, Myo5 SH3)",[4],146.1 BLU
ILCAYNSPKVPADI,"The normalized value in BLU units (SPOT analysis, Myo5 SH3)",[4],81.4 BLU
KLPKLNVPLNPKGK,"The normalized value in BLU units (SPOT analysis, Myo5 SH3)",[4],304.7 BLU
GRHLKNIPRIPIFC,"The normalized value in BLU units (SPOT analysis, Myo5 SH3)",[1],1042.1 BLU
PKCEKIEPLSPSFK,"The normalized value in BLU units (SPOT analysis, Myo5 SH3)",[1],116.4 BLU
LWILYMSPDVPSAS,"The normalized value in BLU units (SPOT analysis, Myo5 SH3)",[4],252.6 BLU
IFQSLLHPELPIII,The normalized value in BLU units,[2],239.9 BLU
NALGLDPPPSPEDP,"The normalized value in BLU units (SPOT analysis, Myo5 SH3)",[4],240.8 BLU
TVCDRLIPTSPQKT,The normalized value in BLU units,[3],127.7 BLU
SLIPKIEPAEPTYS,The normalized value in BLU units,[3],85.4 BLU
HEYNLALPKFPILF,The normalized value in BLU units,[2],146.8 BLU

# — paper PMC314469, “Protein Interaction Networks by Proteome Peptide Scanning” (PLoS Biology, 2004)
